Measurements: ChEMBL document CHEMBL4385591, “Structural studies of the binding of an antagonistic cyclic peptide to the VEGFR1 domain 2” (Eur J Med Chem, 2019)
The source made the active and inactive calls. The calls are words filed in the database; no cut-off is given here. Peptide text beside a SMILES is read from it.

Legend:
RF/6A = conditions: Macaca mulatta, 50 uM
Description: Antiangiogenic activity in rhesus monkey RF/6A cells assessed as inhibition of VEGF-A-induced microtube formation at 50 uM pre-incubated for 15 mins followed by VEGF-A stimulation for 4 hrs by matrigel based capillary tube formation assay

HUVEC = conditions: Homo sapiens, 50 uM
Description: Antiangiogenic activity in HUVEC cells assessed as inhibition of VEGF-A-induced microtube formation at 50 uM pre-incubated for 15 mins followed by VEGF-A stimulation for 4 hrs by matrigel based capillary tube formation assay

`CC(C)C[C@@H]1NC(=O)CNC(=O)[C@H](CCC(=O)O)NC(=O)[C@H](CC(=O)O)NC(=O)[C@H](CCCCN)NC(=O)[C@H](Cc2ccc(O)cc2)NC(=O)CC[C@@H](C(=O)NCCc2ccc(O)c(O)c2)NC(=O)[C@H](CCC(=O)O)NC1=O` (HELM PEPTIDE1{Y.K.D.E.G.L.E.E.[Oc1ccc(CCN[*:1])cc1O]}$PEPTIDE1,PEPTIDE1,1:R1-8:R3$$$V2.0) was tested, and the inhibition (RF/6A) was “Active” and the inhibition (HUVEC) was “Active”.
